Patent US12227494B2, “Polymorphisms of HM30181 mesylate” (ATHENEX R&D, LLC, priority 2020, dated 2025)

What was measured:
Format in all cases: physicochemical
[1] = XRPD of polymorphs after air-drying or vacuum-drying (solid form stability)
Procedure: Large scale studies were performed with HM30181 mesylate Type A starting material on a 200 mg scale as described below. Solids were isolated by vacuum filtration. The wet cakes from filtration from DMA, DMF, and NMP slurries were washed with 1 mL to 2 mL methanol to remove solvents. […]
(§1) XRPD was performed using a Panalytical X'Pert3™ Powder XRPD and on a Si zero-background holder. The 2θ position was calibrated against a Panalytical™ 640 Si powder standard. Details of XRPD used in the experiments are listed below in Table 20.

[2] = Cyclic DSC heating followed by XRPD / 1H-NMR (thermal stability of solid form)
Procedure: Based on ^1H-NMR data, decomposition of Type A initiated after heating to 200° C. (see FIG. 14).
as §1
In some studies, a cyclic DSC method was used. In such cycling DSC methods temperature was ramped from ambient to 150° C. at a heating rate of 10° C./min using N2 as the purge gas, then cooled by 10° C. to 25° C. This temperature cycle repeated twice (see Table 22).
(§2) Proton NMR were obtained using a Varian 200M™ NMR in deuterated DMSO (DMSO-d6).

[3] = Estimated solubility of HM30181 mesylate Type A starting material in solvents (stepwise solvent addition); conditions: for solubility: thermodynamic from solid
[4] = 1H-NMR check for disproportionation or degradation; conditions: slurry in DMF at 150° C., 5 days
Text: At large scale, a slurry of HM30181 mesylate Type A starting material in methanol at ambient conditions generated a mixture of HM30181 mesylate Type B and HM30181 mesylate Type A after 9 days (see FIG. 32). After 14 days, the slurry in methanol generated a HM30181 mesylate Type N polymorph. […] A scaled-up slurry of HM30181 mesylate Type A starting material in DMA yielded HM30181 mesylate Type E after 6 days (see FIG. 35). […] A scaled-up slurry of HM30181 mesylate Type A starting material in DMF at 50° C. yielded HM30181 mesylate Type F rather than the expected HM30181 mesylate Type G after 9 days (see FIG. 36). […] This slurry was heated in an attempt to generate HM30181 mesylate Type G. A scaled-up slurry of HM30181 mesylate Type A starting material in DMF at 100° C. yielded HM30181 mesylate Type F after 2 days (see FIG. 37). A scaled-up slurry of HM30181 mesylate Type A starting material in DMF at 150° C. yielded a previously unobserved XRPD pattern after 5 days (see FIG. 37).
By 1H-NMR, HM30181 mesylate Type E contained DMA, HM30181 mesylate Type F contains DMF, and HM30181 mesylate Type N contains MeOH.
as §2

## COc1cc2c(cc1OC)CN(CCc1ccc(-n3nnc(-c4cc(OC)c(OC)cc4NC(=O)c4cc(=O)c5ccccc5o4)n3)cc1)CC2.CS(=O)(=O)O [HM30181 mesylate Type A, HM30181 mesylate]
[1]; air-dried solids from Crash cooling 50° C.-->−20° C., ACN 10 mL, Exp. 6007235-17-C12
  XRPD (air-dry): Type C
[1]; air-dried solids from Slow Cooling 50° C.-->4° C., ACN 10 mL, Exp. 6007235-17-C4
  XRPD (air-dry): Type C
[1]; air-dried solids from Slow Cooling 50° C.-->4° C., DCM 10 mL, Exp. 6007235-17-C5
  XRPD (air-dry): Type C
[2]; 1H-NMR of heated sample
  Heating temperature after which decomposition initiated (1H-NMR): 200 °C
[2]; heated to 110° C.
  XRPD after cyclic DSC: no XRPD change
[2]; heated to 185° C.
  XRPD after cyclic DSC: reduced crystallinity
[2]; heated to 200° C.
  XRPD after cyclic DSC: amorphous material
[3]; organic solvent or mixture, solvent 1,4-Dioxane
  solubility: < 1000 µg/mL
[3]; organic solvent or mixture, solvent 2-MeTHF
  solubility: < 1000 µg/mL
[3]; organic solvent or mixture, solvent ACN
  solubility: < 1000 µg/mL
[3]; organic solvent or mixture, solvent Acetone
  solubility: < 1000 µg/mL
[3]; organic solvent or mixture, solvent CHCl3
  solubility: 5000 to 6700 µg/mL
[3]; organic solvent or mixture, solvent Cumene
  solubility: < 1000 µg/mL
[3]; organic solvent or mixture, solvent Cyclohexane
  solubility: < 1000 µg/mL
[3]; organic solvent or mixture, solvent DCM
  solubility: < 1000 µg/mL
[3]; organic solvent or mixture, solvent DMA
  solubility: 3200 to 4800 µg/mL
[3]; organic solvent or mixture, solvent DMSO
  solubility: 22000 to 44000 µg/mL
[3]; organic solvent or mixture, solvent EtOAc
  solubility: < 900 µg/mL
[3]; organic solvent or mixture, solvent EtOH
  solubility: < 900 µg/mL
[3]; organic solvent or mixture, solvent IPA
  solubility: < 1000 µg/mL
[3]; organic solvent or mixture, solvent IPOAc
  solubility: < 1000 µg/mL
[3]; organic solvent or mixture, solvent MEK
  solubility: < 1000 µg/mL
[3]; organic solvent or mixture, solvent MIBK
  solubility: < 1000 µg/mL
[3]; organic solvent or mixture, solvent MTBE
  solubility: < 1000 µg/mL
[3]; organic solvent or mixture, solvent MeOH
  solubility: 1700 to 2000 µg/mL
[3]; organic solvent or mixture, solvent NMP
  solubility: 4800 to 6300 µg/mL
[3]; organic solvent or mixture, solvent T-BuOH
  solubility: < 1000 µg/mL
[3]; organic solvent or mixture, solvent THF
  solubility: < 1000 µg/mL
[3]; organic solvent or mixture, solvent Toluene
  solubility: < 1000 µg/mL
[3]; organic solvent or mixture, solvent n-Heptane
  solubility: < 1000 µg/mL
[3]; organic solvent or mixture, solvent n-Propanol
  solubility: < 1000 µg/mL
[3]; organic solvent or mixture, solvent n-Propyl acetate
  solubility: < 1000 µg/mL
[3]; solvent 1,4-Dioxane
  Dissolved after heating to 50° C. for 2 hours?: No
[3]; solvent 2-MeTHF
  Dissolved after heating to 50° C. for 2 hours?: No
[3]; solvent ACN
  Dissolved after heating to 50° C. for 2 hours?: Yes
[3]; solvent Acetone
  Dissolved after heating to 50° C. for 2 hours?: No
[3]; solvent Cumene
  Dissolved after heating to 50° C. for 2 hours?: No
[3]; solvent Cyclohexane
  Dissolved after heating to 50° C. for 2 hours?: No
[3]; solvent DCM
  Dissolved after heating to 50° C. for 2 hours?: Yes
[3]; solvent EtOAc
  Dissolved after heating to 50° C. for 2 hours?: No
[3]; solvent EtOH
  Dissolved after heating to 50° C. for 2 hours?: Almost
[3]; solvent H2O
  Dissolved after heating to 50° C. for 2 hours?: No
[3]; solvent IPA
  Dissolved after heating to 50° C. for 2 hours?: No
[3]; solvent IPOAc
  Dissolved after heating to 50° C. for 2 hours?: No
[3]; solvent MEK
  Dissolved after heating to 50° C. for 2 hours?: No
[3]; solvent MIBK
  Dissolved after heating to 50° C. for 2 hours?: No
[3]; solvent MTBE
  Dissolved after heating to 50° C. for 2 hours?: No
[3]; solvent T-BuOH
  Dissolved after heating to 50° C. for 2 hours?: No
[3]; solvent THF
  Dissolved after heating to 50° C. for 2 hours?: No
[3]; solvent Toluene
  Dissolved after heating to 50° C. for 2 hours?: No
[3]; solvent n-Heptane
  Dissolved after heating to 50° C. for 2 hours?: No
[3]; solvent n-Propanol
  Dissolved after heating to 50° C. for 2 hours?: No
[3]; solvent n-Propyl acetate
  Dissolved after heating to 50° C. for 2 hours?: No
[3]; water, solvent H2O
  solubility: < 1000 µg/mL
[4]
  Chemical stability in DMF slurry by 1H-NMR: resulted in degradation
